According to US9145402B2, “Aminopyrimidine derivatives as LRRK2 modulators” (Genentech, Inc., priority 2011, dated 2015):

What follows are molecules tested against LRRK2 (Homo sapiens (Human), UniProt Q5S007, G2019S) (assay: In Vitro LRRK2 LabChip Assay (LRRK2 Ki)).
Format: biochemical
Protocol: In Vitro LRRK2 LabChip Assay
This assay was used to determine a compound's potency in inhibiting activity of LRRK2 by determining, Kiapp, IC50, or percent inhibition values. In a polypropylene plate, LRRK2, fluorescently-labeled peptide substrate, ATP and test compound were incubated together. Using a LabChip 3000 (Caliper Life Sciences), after the reaction the substrate was separated by capillary electrophoresis into two populations: phosphorylated and unphosphorylated. The relative amounts of each were quantitated by fluorescence intensity. LRRK2 Ki was determined according to the equation: Y=V0*(1−((x+Ki*(1+S/Km)+Et)/(2*Et)−(((x+Ki*(1+S/Km)+Et)^2−(4*Et*x))^0.5)/(2*Et))). Ki values in Table 4 and elsewhere herein are shown in μM.
Assay conditions and materials used were as follows:
Kinase reaction time: 2 hours
Wild type in 5 mM MgCl2: 80 μM
Solid Support: Black 50 μL volume polypropylene 384 well plate (MatriCal cat #MP101-1-PP)
Non-binding plate: 384 well clear V-bottom polypropylene plates (Greiner cat #781280).
ATP: 10 mM ATP (Cell Signaling cat #9804).
Coating Reagent #3: Coating Reagent #3 (Caliper).
Complete Reaction Buffer: H2O/25 mM Tris, pH 8.0/5 mM MgCl2/2 mM DTT/0.01% Triton X-100.
Stop Solution: H2O/100 mM HEPES, pH 7.2/0.015% Brij-35/0.2% Coating Reagent #3/20 mM EDTA.
Separation Buffer: H2O/100 mM HEPES, pH 7.2/0.015% Brij-35/0.1% Coating Reagent #3/1:200 Coating Reagent #8/10 mM EDTA/5% DMSO.
Compound Plate Preparation:
For serial dilutions, 34.6 μl DMSO was added to columns 3-24. For the assay controls, 37.5 μl DMSO was added to columns 1 and 2 of rows A and P. a,d and 50 μl 25 μM G-028831 (Staurosporine) was added to columns 1 and 2, row B. For the samples: to start at 100 μM, 37.5 μl DMSO was to columns 1 and 2, then 12.5 μl 10 mM compound; to start at 10 μM, 78 μl DMSO was added to columns 1 & 2, then 2 μl 10 mM compound; and to start at 1 μM, 25 μM compound (2 μl 10 mM cmpd+798 μl DMSO) was added to empty columns 1 and 2. A Precision instrument was used to perform 1:3.16 serial dilutions (“PLK_BM_serial_halflog”).
ATP was diluted to 282.1 μM in Complete Kinase Buffer (final concentration was 130 μM).
Total and Blank Preparation:
In Complete Reaction Buffer, substrate was diluted to 4 μM. Equal volumes of Complete Reaction Buffer and 4 μM substrate were combined to obtain the blank. Equal volumes of Complete Reaction Buffer and 4 μM substrate were combined and to the combined solution was added 2× final LRRK2 concentration.
To a 50 μl polypropylene plate, 5 μl/well buffer/substrate was added by hand to Blank wells. A Biomek FX was used to start the kinase reaction (“PLK SAR 23 ATP”). The following were added to the appropriate wells:
5 μl/well compound/ATP in Assay Plate;
5 μl/well kinase/substrate in Assay Plate;
The plate was incubated for 2 hours in the dark. Biomek FX was used to stop the kinase reaction (“PLK Stop”), and 10 μl/well Stop solution was added to the Assay Plate. Results were read on the LabChip 3000.
The LabChip 3000 was run using the job “LRRK2 IC50” with the following job settings:
Downstream voltage: −500 V
Upstream voltage: −2350 V
Post sample buffer sip time: 75 seconds
Post dye buffer sip time: 75 seconds
Final delay time: 200 seconds

LRRK2, sequence (Q5S007 970-2527 G2019S): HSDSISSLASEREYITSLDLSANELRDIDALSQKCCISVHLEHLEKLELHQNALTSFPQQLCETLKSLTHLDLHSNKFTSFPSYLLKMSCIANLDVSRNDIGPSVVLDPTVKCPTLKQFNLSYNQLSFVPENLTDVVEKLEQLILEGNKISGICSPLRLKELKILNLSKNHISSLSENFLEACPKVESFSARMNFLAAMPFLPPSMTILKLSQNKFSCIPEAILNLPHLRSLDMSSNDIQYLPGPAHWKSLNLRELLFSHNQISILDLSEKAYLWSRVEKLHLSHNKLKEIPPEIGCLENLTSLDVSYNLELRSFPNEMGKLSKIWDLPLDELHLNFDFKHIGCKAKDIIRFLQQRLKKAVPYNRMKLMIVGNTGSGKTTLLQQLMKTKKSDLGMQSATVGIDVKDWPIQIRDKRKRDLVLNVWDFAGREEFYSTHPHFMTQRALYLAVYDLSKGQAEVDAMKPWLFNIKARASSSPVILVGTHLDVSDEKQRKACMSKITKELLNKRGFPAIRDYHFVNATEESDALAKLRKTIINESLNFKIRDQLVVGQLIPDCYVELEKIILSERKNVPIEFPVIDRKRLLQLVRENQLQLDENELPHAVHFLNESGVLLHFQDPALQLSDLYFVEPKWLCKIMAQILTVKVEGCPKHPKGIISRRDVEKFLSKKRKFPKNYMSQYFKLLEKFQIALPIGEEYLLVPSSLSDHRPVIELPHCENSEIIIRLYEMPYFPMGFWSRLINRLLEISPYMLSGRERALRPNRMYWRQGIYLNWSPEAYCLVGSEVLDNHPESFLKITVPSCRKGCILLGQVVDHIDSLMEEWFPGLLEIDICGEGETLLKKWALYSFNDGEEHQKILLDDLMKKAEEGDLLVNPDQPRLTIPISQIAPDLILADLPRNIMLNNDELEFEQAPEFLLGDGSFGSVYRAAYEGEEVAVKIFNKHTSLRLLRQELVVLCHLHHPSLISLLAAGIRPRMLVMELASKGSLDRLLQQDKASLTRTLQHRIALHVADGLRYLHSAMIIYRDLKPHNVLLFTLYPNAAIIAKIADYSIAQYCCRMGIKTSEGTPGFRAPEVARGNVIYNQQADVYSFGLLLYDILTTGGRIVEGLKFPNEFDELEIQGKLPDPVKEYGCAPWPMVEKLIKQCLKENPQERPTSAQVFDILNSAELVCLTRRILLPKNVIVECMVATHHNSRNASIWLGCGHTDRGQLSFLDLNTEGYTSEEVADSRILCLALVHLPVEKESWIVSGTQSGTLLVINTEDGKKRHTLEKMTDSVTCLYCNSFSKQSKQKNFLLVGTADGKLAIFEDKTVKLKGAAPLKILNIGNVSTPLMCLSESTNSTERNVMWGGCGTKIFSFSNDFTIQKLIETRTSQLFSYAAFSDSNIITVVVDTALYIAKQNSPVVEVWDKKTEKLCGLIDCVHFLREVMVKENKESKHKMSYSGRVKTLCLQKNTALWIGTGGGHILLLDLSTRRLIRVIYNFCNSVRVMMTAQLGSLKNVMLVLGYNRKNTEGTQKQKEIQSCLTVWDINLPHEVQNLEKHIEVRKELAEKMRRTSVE

| Compound | Ki [nM] |
| --- | --- |
| CNc1nc(Nc2ccc(N3CCOCC3)cc2OC)ncc1Cl [Example 24, 5-chloro-N2-(2-methoxy-4-morpholinophenyl)-N4-methylpyrimidine-2,4-diamine] | 9 |
| CNc1nc(Nc2ccc(C(=O)O)cc2OC)ncc1Cl [Example 25, 4-(5-chloro-4-(methylamino)pyrimidin-2-ylamino)-3-methoxybenzoic acid] | 7 |
| CNc1nc(Nc2ccc(S(=O)(=O)N3CCOCC3)cc2OC)ncc1C(F)(F)F [Example 26, N2-(2-methoxy-4-(morpholinosulfonyl)phenyl)-N4-methyl-5-(trifluoromethyl)pyrimidine-2,4-diamine] | 47 |
| CNc1nc(Nc2ccc(C(F)(F)F)cc2OC)ncc1C(F)(F)F [Example 27, N2-(2-methoxy-4-(trifluoromethyl)phenyl)-N4-methyl-5-(trifluoromethyl)pyrimidine-2,4-diamine] | 23 |
| CNc1nc(Nc2ccc(C(F)(F)F)cc2OC)ncc1Cl [Example 28, 5-chloro-N2-(2-methoxy-4-(trifluoromethyl)phenyl)-N4-methylpyrimidine-2,4-diamine] | 35 |
| CNc1nc(Nc2cc(Cl)c(C(=O)O)cc2OC)ncc1Cl [Example 29, 2-chloro-4-(5-chloro-4-(methylamino)pyrimidin-2-ylamino)-5-methoxybenzoic acid] | 36 |
| CNc1nc(Nc2cc(F)c(N3CCCCC3=O)cc2OC)ncc1C(F)(F)F [Example 32, 1-(2-fluoro-5-methoxy-4-(4-(methylamino)-5-(trifluoromethyl)pyrimidin-2-ylamino)phenyl)piperidin-2-one] | 5.5 |
| CNc1nc(Nc2cc(F)c(CN3CCOCC3)cc2OC)ncc1C(F)(F)F [Example 37, N2-(5-fluoro-2-methoxy-4-(morpholinomethyl)phenyl)-N4-methyl-5-(trifluoromethyl)pyrimidine-2,4-diamine] | 56 |

The next molecules have a lower Ki than those just listed; values first:

| Ki [nM] | Compound |
| --- | --- |
| 3 | CNc1nc(Nc2ccc(S(C)(=O)=O)cc2OCCF)ncc1C(F)(F)F [Example 19, N2-[2-(2-Fluoro-ethoxy)-4-methanesulfonyl-phenyl]-N4-methyl-5-trifluoromethyl-pyrimidine-2,4-diamine] |
| 1 | CNc1nc(Nc2cc(Cl)c(S(C)(=O)=O)cc2OC)ncc1C(F)(F)F [Example 20, N2-(5-Chloro-4-methanesulfonyl-2-methoxy-phenyl)-N4-methyl-5-trifluoromethyl-pyrimidine-2,4-diamine] |
| 4 | CNc1nc(Nc2cc(F)c(CN3CCOCC3)cc2OCCF)ncc1C(F)(F)F [Example 21, N2-[5-Fluoro-2-(2-fluoro-ethoxy)-4-morpholin-4-ylmethyl-phenyl]-N4-methyl-5-trifluoromethyl-pyrimidine-2,4-diamine] |
| 2 | CCNc1nc(Nc2cc(F)c(CN3CCOCC3)cc2OCCF)ncc1C(F)(F)F [Example 22, N4-Ethyl-N2-[5-fluoro-2-(2-fluoro-ethoxy)-4-morpholin-4-ylmethyl-phenyl]-5-trifluoromethyl-pyrimidine-2,4-diamine] |
| 0.3 | CNc1nc(Nc2cc(C)c(S(C)(=O)=O)cc2OC)ncc1C(F)(F)F [Example 23, N2-(4-Methanesulfonyl-2-methoxy-5-methyl-phenyl)-N4-methyl-5-trifluoromethyl-pyrimidine-2,4-diamine] |
| 3 | CNc1nc(Nc2cc(F)c(N3CCCC3=O)cc2OC)ncc1C(F)(F)F [Example 30, 1-(2-fluoro-5-methoxy-4-(4-(methylamino)-5-(trifluoromethyl)pyrimidin-2-ylamino)phenyl)pyrrolidin-2-one] |
| 3 | CNc1nc(Nc2cc(F)c(N3CCOCC3=O)cc2OC)ncc1C(F)(F)F [Example 31, 4-(2-fluoro-5-methoxy-4-(4-(methylamino)-5-(trifluoromethyl)pyrimidin-2-ylamino)phenyl)morpholin-3-one] |
| 3 | CNc1nc(Nc2cc(F)c(C3COC3)cc2OC)ncc1C(F)(F)F [Example 33, N2-(5-fluoro-2-methoxy-4-(oxetan-3-yl)phenyl)-N4-methyl-5-(trifluoromethyl)pyrimidine-2,4-diamine] |
| 3 | CCNc1nc(Nc2cc(C)c(S(C)(=O)=O)cc2OC)ncc1C(F)(F)F [Example 34, N4-ethyl-N2-(2-methoxy-5-methyl-4-(methylsulfonyl)phenyl)-5-(trifluoromethyl)pyrimidine-2,4-diamine] |
| 3 | CCS(=O)(=O)c1cc(OC)c(Nc2ncc(C(F)(F)F)c(NC)n2)cc1C [Example 35, N2-(4-(ethylsulfonyl)-2-methoxy-5-methylphenyl)-N4-methyl-5-(trifluoromethyl)pyrimidine-2,4-diamine] |
| 3 | CNc1nc(Nc2cc(C)c(S(C)(=O)=O)cc2OC)ncc1C(F)(F)F [Example 36, N2-(2-methoxy-5-methyl-4-(methylsulfonyl)phenyl)-N4-methyl-5-(trifluoromethyl)pyrimidine-2,4-diamine] |
| 3 | CCNc1nc(Nc2ccc(S(C)(=O)=O)c3c2OCCO3)ncc1C(F)(F)F [Example 38, N4-ethyl-N2-(8-(methylsulfonyl)-2,3-dihydrobenzo[b][1,4]dioxin-5-yl)-5-(trifluoromethyl)pyrimidine-2,4-diamine] |
